± gives the expanded uncertainty stated by the source.
Assays:
[1] = Crystal; DTA
[2] = Molar enthalpy of transition or fusion; settings: Crystal; DSC

O=C(O)/C=C/c1ccccc1 [(E)-cinnamic acid]
Normal melting temperature [1]: 133.00 ± 0.7 °C
Molar enthalpy of transition or fusion [2]: 5.31 ± 0.203 kcal/mol

— the NIST ThermoML archive (doi:10.1021/acs.jced.5b00814)
